Laboratory results: ChEMBL document CHEMBL4351016 (Eur J Med Chem, 2019)
Each block holds one compound with its values, some of them ahead of it. Calls of active or inactive are those of the source. The calls are words filed in the database; no cut-off is given here.

Tests used:
[1] = tested on: CWR22R; test: Antiproliferative activity against AR-positive human 22Rv1 cells harboring ARE14 construct assessed as growth inhibition after 72 hrs by resazurin dye based fluorescence assay; type: functional; conditions: 22Rv1, 72 h
[2] = tested on: LNCaP C4-2; test: Antiproliferative activity against AR-positive human C4-2 cells assessed as growth inhibition after 72 hrs by resazurin dye based fluorescence assay; type: functional; conditions: LNCaP C4-2, 72 h
[3] = tested on: VCaP; test: Antiproliferative activity against AR-positive human VCaP cells assessed as growth inhibition after 72 hrs by resazurin dye based fluorescence assay; type: functional
[4] = tested on: PC-3; test: Antiproliferative activity against AR-negative human PC3 cells assessed as growth inhibition after 72 hrs by resazurin dye based fluorescence assay; type: functional; conditions: PC-3, 72 h
[5] = tested on: CWR22R; test: Antiproliferative activity against AR-positive human 22Rv1 cells harboring ARE14 construct assessed as cell viability at 40 uM after 72 hrs by resazurin dye based fluorescence assay; type: functional; conditions: 22Rv1, 72 h, read-out: Activity
[6] = tested on: LNCaP C4-2; test: Antiproliferative activity against AR-positive human C4-2 cells assessed as cell viability at 40 uM after 72 hrs by resazurin dye based fluorescence assay; type: functional; conditions: LNCaP C4-2, 72 h, read-out: Activity
[7] = tested on: VCaP; test: Antiproliferative activity against AR-positive human VCaP cells assessed as cell viability at 40 uM after 72 hrs by resazurin dye based fluorescence assay; type: functional; conditions: read-out: Activity
[8] = tested on: PC-3; test: Antiproliferative activity against AR-negative human PC3 cells assessed as cell viability at 40 uM after 72 hrs by resazurin dye based fluorescence assay; type: functional; conditions: PC-3, 72 h, read-out: Activity
[9] = biological target: T1, Androgen receptor (Homo sapiens) (UniProt P10275); test: Inhibition of AR transcriptional activity in AR-positive human 22Rv1 cells harboring ARE14 construct assessed as downregulation of NKX3.1 protein expression at 5 uM after 24 hrs by immunoblot analysis
T1 sequence (whole entry): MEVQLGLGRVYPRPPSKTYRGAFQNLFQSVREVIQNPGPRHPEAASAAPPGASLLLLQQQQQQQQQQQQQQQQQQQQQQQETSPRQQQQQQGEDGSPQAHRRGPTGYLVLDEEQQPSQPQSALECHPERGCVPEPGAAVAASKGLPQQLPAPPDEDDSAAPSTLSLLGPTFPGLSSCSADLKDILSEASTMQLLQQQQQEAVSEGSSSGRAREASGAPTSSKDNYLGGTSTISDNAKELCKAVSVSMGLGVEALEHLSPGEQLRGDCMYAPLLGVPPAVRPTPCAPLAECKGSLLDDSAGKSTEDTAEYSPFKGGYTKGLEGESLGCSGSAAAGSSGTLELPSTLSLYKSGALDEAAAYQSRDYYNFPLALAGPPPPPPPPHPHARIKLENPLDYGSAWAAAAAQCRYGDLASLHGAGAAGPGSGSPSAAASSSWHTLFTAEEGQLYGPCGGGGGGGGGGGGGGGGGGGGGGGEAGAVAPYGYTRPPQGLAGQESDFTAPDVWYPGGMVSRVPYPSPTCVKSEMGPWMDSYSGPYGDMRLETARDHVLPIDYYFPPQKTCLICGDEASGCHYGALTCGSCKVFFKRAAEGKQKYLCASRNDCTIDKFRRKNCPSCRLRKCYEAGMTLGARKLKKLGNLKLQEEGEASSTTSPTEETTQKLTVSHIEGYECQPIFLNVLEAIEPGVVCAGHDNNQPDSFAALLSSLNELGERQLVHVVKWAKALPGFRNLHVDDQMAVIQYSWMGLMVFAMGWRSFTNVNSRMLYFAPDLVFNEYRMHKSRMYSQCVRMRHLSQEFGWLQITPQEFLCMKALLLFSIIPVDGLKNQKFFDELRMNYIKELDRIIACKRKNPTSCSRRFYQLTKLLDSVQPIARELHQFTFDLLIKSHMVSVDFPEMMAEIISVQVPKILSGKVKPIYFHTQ

[10] = biological target: T1, Androgen receptor (Homo sapiens); test: (§1) Inhibition of R1881 induced-AR transcriptional activity in AR-positive human 22Rv1 cells harboring ARE14 construct after 24 hrs by luciferase assay
[11] = biological target: T2, Androgen receptor (Homo sapiens, UniProt P10275); test: as §1
T2 sequence (P10275 whole entry): T1 sequence (whole entry)

[12] = biological target: T1, Androgen receptor (Homo sapiens); test: Inhibition of R1881 induced-AR transcriptional activity in AR-positive human 22Rv1 cells harboring ARE14 construct assessed as suppression of NKX3.1 expression at 5 uM after 24 hrs by immunoblot analysis
[13] = biological target: T1, Androgen receptor (Homo sapiens); test: Inhibition of R1881 induced-AR transcriptional activity in AR-positive human 22Rv1 cells harboring ARE14 construct assessed as suppression of PSA expression at 5 uM after 24 hrs by immunoblot analysis
[14] = tested on: CWR22R; test: Inhibition of colony formation in AR-positive human 22Rv1 cells harboring ARE14 construct at 0.625 to 10 uM incubated for 10 days by crystal violet staining based analysis; type: functional, cell-based
[15] = biological target: T1, Androgen receptor (Homo sapiens); test: Inhibition of R1881-stimulated AR transcriptional activity in AR-positive human VCaP cells assessed as decrease in NKX3.1 protein expression at 20 uM after 48 hrs by immunoblot analysis; type: cell-based
[16] = biological target: T1, Androgen receptor (Homo sapiens); test: Inhibition of R1881-stimulated AR transcriptional activity in AR-positive human VCaP cells assessed as decrease in PSA protein expression at 20 uM after 48 hrs by immunoblot analysis; type: cell-based
[17] = tested on: VCaP; test: Downregulation of AR protein expression in R1881-stimulated AR-positive human VCaP cells at 20 uM after 48 hrs by immunoblot analysis; type: functional, cell-based
[18] = tested on: VCaP; test: Induction of apoptosis in R1881-stimulated AR-positive human VCaP cells assessed as PARP cleavage at 20 uM after 24 to 72 hrs by immunoblot analysis; type: functional, cell-based
[19] = tested on: VCaP; test: Induction of apoptosis in R1881-stimulated AR-positive human VCaP cells assessed as caspase-3/7 activation at 20 uM using Ac-DEVD-AMC as substrate after 24 to 72 hrs by fluorescence based microplate reader analysis; type: functional, cell-based
[20] = tested on: CWR22R; test: Induction of apoptosis in R1881-activated AR-positive human 22Rv1 cells harboring ARE14 construct assessed as cleaved PARP level at 5 uM after 24 hrs by immunoblot analysis; type: functional, cell-based
[21] = tested on: CWR22R; test: Antiproliferative activity against AR-positive human 22Rv1 cells harboring ARE14 construct assessed as growth inhibition after 24 hrs by resazurin dye based fluorescence assay; type: functional; conditions: 22Rv1, 24 h
[22] = tested on: BJ; test: Antiproliferative activity against human BJ cells assessed as growth inhibition after 24 hrs by resazurin dye based fluorescence assay; type: functional
[23] = biological target: T1, Androgen receptor (Homo sapiens); test: Inhibition of R1881-stimulated AR transcriptional activity in AR-positive human VCaP cells assessed as NKX3.1 protein expression at 20 uM after 24 hrs by immunoblot analysis; type: cell-based
[24] = tested on: CWR22R; test: Effect on AR-V7 protein expression in AR-positive human 22Rv1 cells harboring ARE14 construct at 5 uM after 24 hrs by immunoblot analysis; type: functional, cell-based
[25] = biological target: T1, Androgen receptor (Homo sapiens); test: Inhibition of R1881-stimulated AR transcriptional activity in AR-positive human VCaP cells assessed as PSA protein expression at 20 uM after 24 hrs by immunoblot analysis; type: cell-based
[26] = biological target: T1, Androgen receptor (Homo sapiens); conditions: at 10 µM
Description: Inhibition of R1881 induced-AR transcriptional activity in AR-positive human 22Rv1 cells harboring ARE14 construct at 10 uM after 24 hrs by luciferase assay relative to control

- GI50 [2]: > 40 µM
- GI50 [3]: > 40 µM
- GI50 [4]: > 40 µM
SMILES: CNC(=O)c1ccc(N2C(=S)N(c3ccc(C#N)c(C(F)(F)F)c3)C(=O)C2(C)C)cc1F [ENZALUTAMIDE]
- GI50 [1]: > 40 µM
- viability at 40 µM [5]: 84%
- viability at 40 µM [6]: 91.5%
- viability at 40 µM [7]: 61.2%
- viability at 40 µM [8]: 74%

- GI50 [2]: 1.7 µM
- GI50 [3]: 2 µM
- GI50 [4]: > 100 µM
- NKX3.1 protein downregulation (active/not active) [9]: Active
- inhibition [10]: Dose-dependent effect
- IC50 [11]: 0.315 µM
- inhibition [12]: Active
- inhibition [13]: Active
- inhibition [15]: Active
- inhibition [16]: Active
- inhibition [23]: inactive
- inhibition [25]: inactive
- inhibition [26]: 29%
SMILES: CC(=O)O[C@H]1CC[C@@]2(C)C(=CC[C@@H]3[C@@H]2CC[C@]2(C)c4c(C)nc5[nH]c6ccccc6c5c4C[C@@H]32)C1
- GI50 [1]: 1.4 µM
- inhibition [14]: Active
- inhibition [17]: Active
- Activity [18]: Active
- Activity [19]: Active
- Activity [20]: inactive
- GI50 [21]: > 50 µM
- GI50 [22]: > 50 µM
- Activity [24]: inactive
